Data reported in patent US10370425B2, “Peptide antagonists of the calcitonin CGRP family of peptide hormones and their use” (priority 2012, dated 2019).
Read-outs that look alike come from different tables or passages of the source. Positions of bridges follow the written chain, without caps; N, C: chain ends. Residues, ends and D or L forms follow the SMILES beside them. No end group written: not given here.

Target: T1, amylin receptor, AMY1, a CT (calcitonin) receptor/RAMP1 (receptor-activity modifying protein) complex (Homo sapiens, UniProt O60894+P30988)
T1 construct: host or cells: CHO-K1/AMY1/Gα15
T1 sequence (P30988 25-474): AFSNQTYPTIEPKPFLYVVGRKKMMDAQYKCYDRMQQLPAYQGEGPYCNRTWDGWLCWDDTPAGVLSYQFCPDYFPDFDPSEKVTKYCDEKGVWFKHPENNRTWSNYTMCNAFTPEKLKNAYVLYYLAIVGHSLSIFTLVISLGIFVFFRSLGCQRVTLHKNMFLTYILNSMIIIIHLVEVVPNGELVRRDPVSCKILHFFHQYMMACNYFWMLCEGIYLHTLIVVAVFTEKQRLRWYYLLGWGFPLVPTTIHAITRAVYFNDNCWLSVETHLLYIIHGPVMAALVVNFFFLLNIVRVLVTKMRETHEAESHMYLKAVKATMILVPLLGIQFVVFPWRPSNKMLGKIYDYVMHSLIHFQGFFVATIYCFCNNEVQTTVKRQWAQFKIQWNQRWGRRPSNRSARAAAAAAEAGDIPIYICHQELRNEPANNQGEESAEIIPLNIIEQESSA
T1 sequence (O60894 27-148): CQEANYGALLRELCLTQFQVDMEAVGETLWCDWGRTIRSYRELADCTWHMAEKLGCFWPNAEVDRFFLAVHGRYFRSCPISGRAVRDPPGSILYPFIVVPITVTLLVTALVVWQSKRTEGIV
Assay: Calcium flux assay (FLIPR Calcium 4) of inhibition of α-CGRP stimulation in CHO-K1/AMY1/Gα15 cells
Type: cell-based
Details: for inhibition at 1 µM: at maximal test concentration (series starts with 1 μM), CHO-K1/AMY1/Gα15 cells stimulated with 32 nM (EC80) α-CGRP, n = 2, read-out: % Inhibition @ Maximal concentration (Mean +/− SD, n = 2)
Procedure: Using a calcium flux assay, the dose-dependent inhibitory response of peptide antagonists of the present invention on an amylin receptor, AMY1, a CT (calcitonin) receptor/RAMP1 (receptor-activity modifying protein) complex was determined. The recombinant cell line CHO-K1/AMY1/Gα15 (GenScript, Piscataway, N.J., Catalog No. M00475) was employed in the assay. Peptide antagonist activities were tested, in duplicate, at five different concentrations, starting with 1 μM and serially diluted five-fold, in DMSO. AC187 (SEQ ID NO: 55), a known amylin receptor antagonist (available for example from Tocris Bioscience, Minneapolis, Minn., Catalog No. 3419) was used as a positive control in the assays, and human α-CGRP, a known amylin receptor agonist (SEQ ID NO:56) , (available for example from Tocris Bioscience, Minneapolis, Minn., Catalog No. 3012) was used as a positive control in the assays. The FLIPR® Calcium 4 Assay Kit (Molecular Devices, Sunnyvale, Calif.) was used.
Human α-CGRP having the amino acid sequence, NH2-[…]-NH2 (SEQ ID NO:56) and AC187 having the sequence […] (SEQ ID NO: 55) were employed as negative and positive controls, respectively. Stock solutions were further diluted in HBSS-HEPES buffer to make 5×final control solutions.
CHO-K1/AMY1/Gα15 cells were seeded in a 384-well black wall, clear bottom plate at a density of 20,000 cells/well in 20 μL of growth medium 20 hours prior to the day of the experiment and maintained at 37° C./5% CO2.
Per the assay kit protocol, dye-loading solution (at 2×final concentration) was added into the assay plate, 20 μL per well. Compound solution (at 5 ×final concentration) was added into the assay plate, 10 uL per well. The assay plate was placed into a 37° C. incubator for 1 hour, then left for 15 min at RT. The agonist plate (at 5×EC80 concentration) was placed in Source 2. The total reading time was 120 sec. The agonist was added after 20 seconds reading of the baseline and the fluorescence signal was captured for another 100 seconds (21 s to 120 s).
In screening, cells stimulated with assay buffer were chosen as the background; cells stimulated with agonist (at […] concentration) were chosen as the negative control.
Data were recorded by ScreenWorks (version 3.1) as FMD files and stored on the GenScript computer network for off-line analysis. Data acquisition and analyses was performed using ScreenWorks (version 3.1) program and exported to Excel. The average value of 20 (1 s to 20 s) seconds reading was calculated as the baseline reading and the relative fluorescent units (ΔRFU) intensity values were calculated with the maximal fluorescent units (21 s to 120 s) subtracting the average value of baseline reading.
The IC50 value of AC187 was 8 μM. The inhibitory activity of the tested peptide antagonists was normalized with the negative control (AC187) and reported as % Inhibition, calculated from the following equation: % Inhibition=(ΔRFUcompound−ΔRFUBackground)/(ΔRFUNegative control−ΔRFUBackground) * 100% Inhibition was then plotted along the Y-axis, with the test concentrations as indicated on the X-axis. The peptides were tested at indicated concentrations and stimulated with 32 nM (EC80) α-CGRP (Mean +/− SD, n=2).

| Molecule | inhibition at 1 µM | IC50 (CHO-K1/AMY1/Gα15 calcium flux, read-out: IC50 value) | IC50 (positive control, CHO-K1/AMY1/Gα15 cells stimulated with α-CGRP, read-out: IC50 nM (assay positive control)) |
| --- | --- | --- | --- |
| CC(C)C[C@H](NC(=O)[C@H](CCCNC(=N)N)NC(=O)CNC(=O)[C@H](CC(C)C)NC(=O)[C@@H](NC(=O)[C@@H]1CSSC[C@H](NC(=O)[C@H](C)N)C(=O)N[C@@H](CC(=O)O)C(=O)N[C@@H]([C@@H](C)O)C(=O)N[C@@H](C)C(=O)N[C@@H](C(C)C)C(=O)N1)C(C)C)C(=O)N[C@@H](CO)C(=O)N[C@@H](CCC(N)=O)C(=O)N[C@@H](CCC(=O)O)C(=O)N[C@@H](CC(C)C)C(=O)N[C@@H](Cc1c[nH]cn1)C(=O)N[C@@H](CCCNC(=N)N)C(=O)N[C@@H](CC(C)C)C(=O)N[C@@H](CCC(N)=O)C(=O)N[C@H](C(=O)N[C@@H](Cc1ccc(O)cc1)C(=O)N1CCC[C@H]1C(=O)N[C@@H](CCCNC(=N)N)C(=O)N[C@H](C(=O)N[C@@H](CC(N)=O)C(=O)N[C@H](C(=O)NCC(=O)N[C@@H](CO)C(=O)N[C@@H](CCCCN)C(=O)N[C@@H](C)C(=O)N[C@@H](Cc1ccccc1)C(N)=O)C(C)C)[C@@H](C)O)[C@@H](C)O [compound 3] (H-ACDTAVCVLGRLSQELHRLQTYPRTNVGSKAF-NH2; disulfide 2-7 (inferred)) | 95.9% | – | – |
| CC(C)C[C@H](NC(=O)[C@H](CCCNC(=N)N)NC(=O)CNC(=O)[C@H](CC(C)C)NC(=O)[C@@H](NC(=O)[C@@H]1CSSC[C@H](NC(=O)[C@H](C)N)C(=O)N[C@@H](C(C)C)C(=O)N[C@@H](CC(C)C)C(=O)NCC(=O)N[C@@H](C)C(=O)N1)C(C)C)C(=O)N[C@@H](CO)C(=O)N[C@@H](CCC(N)=O)C(=O)N[C@@H](CCC(=O)O)C(=O)N[C@@H](CC(C)C)C(=O)N[C@@H](Cc1c[nH]cn1)C(=O)N[C@@H](CCCNC(=N)N)C(=O)N[C@@H](CC(C)C)C(=O)N[C@@H](CCC(N)=O)C(=O)N[C@H](C(=O)N[C@@H](Cc1ccc(O)cc1)C(=O)N1CCC[C@H]1C(=O)N[C@H](C(=O)N[C@@H](CC(=O)O)C(=O)N1CCC[C@H]1C(=O)N[C@@H](CO)C(=O)N[C@@H](CO)C(=O)N1CCC[C@H]1C(=O)N[C@@H](Cc1c[nH]cn1)C(=O)N[C@@H](CO)C(=O)N[C@@H](Cc1ccc(O)cc1)C(N)=O)C(C)C)[C@@H](C)O [compound 14] (H-ACVLGACVLGRLSQELHRLQTYPVDPSSPHSY-NH2; disulfide 2-7 (inferred)) | 51.9% | – | – |
| CC(C)C[C@H](NC(=O)[C@H](CCCNC(=N)N)NC(=O)CNC(=O)[C@H](CC(C)C)NC(=O)[C@@H](NC(=O)[C@@H]1CSSC[C@H](NC(=O)[C@H](C)N)C(=O)N[C@@H](CC(N)=O)C(=O)N[C@@H]([C@@H](C)O)C(=O)N[C@@H](C)C(=O)N[C@@H](C)C(=O)N1)C(C)C)C(=O)N[C@@H](CO)C(=O)N[C@@H](CCC(N)=O)C(=O)N[C@@H](CCC(=O)O)C(=O)N[C@@H](CC(C)C)C(=O)N[C@@H](Cc1c[nH]cn1)C(=O)N[C@@H](CCCNC(=N)N)C(=O)N[C@@H](CC(C)C)C(=O)N[C@@H](CCC(N)=O)C(=O)N[C@H](C(=O)N[C@@H](Cc1ccc(O)cc1)C(=O)N1CCC[C@H]1C(=O)N[C@@H](CCCNC(=N)N)C(=O)N[C@H](C(=O)N[C@@H](CC(N)=O)C(=O)N[C@H](C(=O)NCC(=O)N[C@@H](CO)C(=O)N[C@@H](CCCCN)C(=O)N[C@@H](C)C(=O)N[C@@H](Cc1ccccc1)C(N)=O)C(C)C)[C@@H](C)O)[C@@H](C)O [compound 4] (H-ACNTAACVLGRLSQELHRLQTYPRTNVGSKAF-NH2; disulfide 2-7 (inferred)) | 94.6% | – | – |
| CC(C)C[C@H](NC(=O)[C@H](CCCNC(=N)N)NC(=O)CNC(=O)[C@H](CC(C)C)NC(=O)[C@@H](NC(=O)[C@@H]1CSSC[C@H](NC(=O)[C@H](C)N)C(=O)N[C@@H](CC(N)=O)C(=O)N[C@@H](CC(C)C)C(=O)N[C@@H](CO)C(=O)N[C@@H](C)C(=O)N1)C(C)C)C(=O)N[C@@H](CO)C(=O)N[C@@H](CCC(N)=O)C(=O)N[C@@H](CCC(=O)O)C(=O)N[C@@H](CC(C)C)C(=O)N[C@@H](Cc1c[nH]cn1)C(=O)N[C@@H](CCCNC(=N)N)C(=O)N[C@@H](CC(C)C)C(=O)N[C@@H](CCC(N)=O)C(=O)N[C@H](C(=O)N[C@@H](Cc1ccc(O)cc1)C(=O)N1CCC[C@H]1C(=O)N[C@H](C(=O)N[C@@H](CC(N)=O)C(=O)N[C@H](C(=O)NCC(=O)N[C@@H](CO)C(=O)NCC(=O)N[C@H](C(=O)N1CCC[C@H]1C(N)=O)[C@@H](C)O)[C@@H](C)O)[C@@H](C)O)[C@@H](C)O [compound 13] (H-ACNLSACVLGRLSQELHRLQTYPTNTGSGTP-NH2; disulfide 2-7 (inferred)) | 95.8% | – | – |
| CC(C)C[C@H](NC(=O)CNC(=O)[C@H](C)NC(=O)[C@H](CC(C)C)NC(=O)[C@H](CCCNC(=N)N)NC(=O)[C@H](Cc1c[nH]cn1)NC(=O)[C@@H](NC(=O)[C@@H](NC(=O)[C@@H]1CSSC[C@H](NC(=O)[C@H](C)N)C(=O)N[C@@H](CC(=O)O)C(=O)N[C@@H]([C@@H](C)O)C(=O)N[C@@H](C)C(=O)N[C@@H](C)C(=O)N1)C(C)C)[C@@H](C)O)C(=O)N[C@@H](CC(C)C)C(=O)N[C@@H](CO)C(=O)N[C@@H](CCCNC(=N)N)C(=O)N[C@@H](CO)C(=O)NCC(=O)NCC(=O)N[C@H](C(=O)N[C@H](C(=O)N[C@@H](CCCCN)C(=O)N[C@@H](CC(N)=O)C(=O)N[C@@H](CC(N)=O)C(=O)N[C@@H](Cc1ccccc1)C(=O)N[C@H](C(=O)N1CCC[C@H]1C(=O)N[C@H](C(=O)N[C@@H](CC(N)=O)C(=O)N[C@H](C(=O)NCC(=O)N[C@@H](CO)C(=O)N[C@@H](CCCCN)C(=O)N[C@@H](C)C(=O)N[C@@H](Cc1ccccc1)C(N)=O)C(C)C)[C@@H](C)O)C(C)C)C(C)C)C(C)C [compound 15] | 23.3% | – | – |
| CC[C@H](C)[C@@H]1NC(=O)[C@H](C)NC(=O)[C@H]([C@@H](C)O)NC(=O)[C@H](CC(=O)O)NC(=O)[C@@H](NC(=O)[C@H](C)N)CSSC[C@@H](C(=O)N[C@H](C(=O)N[C@@H](CC(C)C)C(=O)NCC(=O)N[C@@H](CCCNC(=N)N)C(=O)N[C@@H](CC(C)C)C(=O)N[C@@H](CO)C(=O)N[C@@H](CCC(N)=O)C(=O)N[C@@H](CCC(=O)O)C(=O)N[C@@H](CC(C)C)C(=O)N[C@@H](Cc2c[nH]cn2)C(=O)N[C@@H](CCCNC(=N)N)C(=O)N[C@@H](CC(C)C)C(=O)N[C@@H](CCC(N)=O)C(=O)N[C@H](C(=O)N[C@@H](Cc2ccc(O)cc2)C(=O)N2CCC[C@H]2C(=O)N[C@@H](CCCNC(=N)N)C(=O)N[C@H](C(=O)N[C@@H](CC(N)=O)C(=O)N[C@H](C(=O)NCC(=O)N[C@@H](CO)C(=O)N[C@@H](CCCCN)C(=O)N[C@@H](C)C(=O)N[C@@H](Cc2ccccc2)C(N)=O)C(C)C)[C@@H](C)O)[C@@H](C)O)C(C)C)NC1=O [compound 10] (H-ACDTAICVLGRLSQELHRLQTYPRTNVGSKAF-NH2; disulfide 2-7 (inferred)) | 96.8% | – | – |
| CC(C)C[C@H](NC(=O)[C@H](CCCNC(=N)N)NC(=O)CNC(=O)[C@H](CC(C)C)NC(=O)[C@@H](NC(=O)[C@@H]1CSSC[C@H](NC(=O)[C@H](C)N)C(=O)N[C@@H](CCCNC(=N)N)C(=O)N[C@@H](Cc2ccccc2)C(=O)NCC(=O)N[C@@H](C)C(=O)N1)C(C)C)C(=O)N[C@@H](CO)C(=O)N[C@@H](CCC(N)=O)C(=O)N[C@@H](CCC(=O)O)C(=O)N[C@@H](CC(C)C)C(=O)N[C@@H](Cc1c[nH]cn1)C(=O)N[C@@H](CCCNC(=N)N)C(=O)N[C@@H](CC(C)C)C(=O)N[C@@H](CCC(N)=O)C(=O)N[C@H](C(=O)N[C@@H](Cc1ccc(O)cc1)C(=O)N1CCC[C@H]1C(=O)N[C@@H](CCCNC(=N)N)C(=O)N[C@H](C(=O)N[C@@H](CC(N)=O)C(=O)N[C@H](C(=O)NCC(=O)N[C@@H](CO)C(=O)N[C@@H](CCCCN)C(=O)N[C@@H](C)C(=O)N[C@@H](Cc1ccccc1)C(N)=O)C(C)C)[C@@H](C)O)[C@@H](C)O [compound 6] (H-ACRFGACVLGRLSQELHRLQTYPRTNVGSKAF-NH2; disulfide 2-7 (inferred)) | 93.9% | – | – |
| VLGKLSQELHKLQTYPRTNTGSNTY [AC187, reference compound] | – | 8000 nM | 8150 nM |
